Measurements: patent publication US20180246095A1, “COMPOSITIONS AND METHODS FOR DIAGNOSING AND TREATING LYME DISEASE” (priority 2015, published 2018)

System: B. burgdorferi B31
Assay: RNA-Seq gene expression profile of B. burgdorferi persisters that survived antibiotic treatment, compared with drug free control
Format: cell-based, Borrelia burgdorferi
Conditions: vs drug free control
Description: RNA Sequencing (RNA-Seq) was performed to determine the gene expression profile of B. burgdorferi persisters that survived antibiotic treatment using next generation sequencing to shed light on the mechanisms of B. burgdorferi persistence. B. burgdorferi B31 cultures were grown for 5 days to 1×10^7 spirochetes/ml in BSK-H medium followed by treatment with 50 μg/ml doxycycline or 50 μg/ml amoxicillin for 6 days. Triplicate biological samples were used for each group. The total RNA was extracted and ribosomal RNA was removed prior to preparation of cDNA libraries for Illumina sequencing. […] The RNA-Seq data was analyzed by BLAST analysis and mapped to KEGG pathways.

[1] = 50 μg/ml antibiotic for 6 days, more than two-fold change

Structure (SMILES) | genes down-regulated in treated group (50 μg/ml antibiotic for 6 days) | genes upregulated in treated group (50 μg/ml antibiotic for 6 days) | total genes differentially expressed between tolerant persisters and drug free group (50 μg/ml antibiotic for 6 days) | down-regulated genes identified by more than two-fold change [1] | up-regulated genes identified by more than two-fold change [1] | clpP (BB_0757) expression, upregulated fold change in persisters (B31 culture treated with 50 μg/ml antibiotic for 6 days)
CC1(C)S[C@@H]2[C@H](NC(=O)[C@H](N)c3ccc(O)cc3)C(=O)N2[C@H]1C(=O)O [amoxicillin, reference compound] | 174 genes | 342 genes | 516 genes |  |  | 
C[C@H]1c2cccc(O)c2C(=O)C2=C(O)[C@]3(O)C(=O)C(C(N)=O)=C(O)[C@@H](N(C)C)[C@@H]3[C@@H](O)[C@@H]21 [doxycycline, reference compound] | 340 genes | 335 genes | 675 genes | 33 genes | 35 genes | 30 fold
